Assay results reported in patent US7049486B2, “Method of inducing gene expression in plant and the plant treated thereby” (priority 2000, dated 2006).

Experiments:
ArpA = biological target: T1, ArpA (Streptomyces griseus, UniProt Q9ZN78); conditions: A factor/ArpA; read-out: dissociation constant (Kd value); cited from earlier work
T1 sequence (Q9ZN78 1-276): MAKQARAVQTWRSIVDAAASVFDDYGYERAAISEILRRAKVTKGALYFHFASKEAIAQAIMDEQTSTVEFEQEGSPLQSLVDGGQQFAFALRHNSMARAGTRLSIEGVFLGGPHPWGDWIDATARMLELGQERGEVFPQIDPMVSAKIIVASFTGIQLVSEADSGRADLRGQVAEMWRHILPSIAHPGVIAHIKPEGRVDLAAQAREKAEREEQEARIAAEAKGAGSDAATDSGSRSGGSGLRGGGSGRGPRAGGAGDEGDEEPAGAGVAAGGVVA

plants = assay: Toxicity to plants; conditions: concentration of 10 μM
From the text: The actinomycete autogenous regulatory factors have no toxicity to plants.

[1] = tested on: GUS reporter gene placed under the control of the operator BARE-3 (repressor BarA); assay: GUS reporter induction at low VB concentrations in transiently transformed cultured tobacco cells (Example 7); assay type: cell-based
From the text: Cultured tobacco cells were provided with the characters of the repressor BarA (receptor protein for VB) and operator BARE-3 (one of the target sequences for BarA) constituting a gene expression inducing system with the actinomycete Streptomyces virginiae autogenous regulatory factor VB as the inducer by gene transfer and whether the expression of the GUS reporter gene placed under the control of the operator BARE-3 was induced was examined by administering the inducer VB in low concentrations to thus-obtained transiently transformed cultured tobacco cells.
Like in Example 6, the GUS reporter gene placed under the control of BARE-3 (Example 2, plasmid pCaMV35SD-gus) was further transferred into a cultured tobacco cell transformant clone (Example 3, No. 21 shown in FIG. 1) seemingly indicating relatively high level accumulation of the BarA protein among the clones obtained by transferring the barA gene (Example 1, binary vector pBICaMV35S-barA) into cultured tobacco BY2 cells, for transient transformation of that clone. […]

| Compound | Kd (ArpA) [nM] | toxicity to plants (plants) | concentration at which gene expression under the control of BARE-3 is induced to a satisfactory extent [1] [nM] |
| --- | --- | --- | --- |
| CC(C)CCCCC(=O)C1C(=O)OC[C@H]1CO (stereo partly drawn) [A factor] | 0.7 |  |  |
| virginiae butanolide [VB] |  | no toxicity | 100 |
